Results as given in BindingDB's records for PubMed 37116763 (n/a, 2023).

Target: T1, Nuclear factor erythroid 2-related factor 2 (Homo sapiens, UniProt Q16236)
T1 sequence (Q16236 whole entry): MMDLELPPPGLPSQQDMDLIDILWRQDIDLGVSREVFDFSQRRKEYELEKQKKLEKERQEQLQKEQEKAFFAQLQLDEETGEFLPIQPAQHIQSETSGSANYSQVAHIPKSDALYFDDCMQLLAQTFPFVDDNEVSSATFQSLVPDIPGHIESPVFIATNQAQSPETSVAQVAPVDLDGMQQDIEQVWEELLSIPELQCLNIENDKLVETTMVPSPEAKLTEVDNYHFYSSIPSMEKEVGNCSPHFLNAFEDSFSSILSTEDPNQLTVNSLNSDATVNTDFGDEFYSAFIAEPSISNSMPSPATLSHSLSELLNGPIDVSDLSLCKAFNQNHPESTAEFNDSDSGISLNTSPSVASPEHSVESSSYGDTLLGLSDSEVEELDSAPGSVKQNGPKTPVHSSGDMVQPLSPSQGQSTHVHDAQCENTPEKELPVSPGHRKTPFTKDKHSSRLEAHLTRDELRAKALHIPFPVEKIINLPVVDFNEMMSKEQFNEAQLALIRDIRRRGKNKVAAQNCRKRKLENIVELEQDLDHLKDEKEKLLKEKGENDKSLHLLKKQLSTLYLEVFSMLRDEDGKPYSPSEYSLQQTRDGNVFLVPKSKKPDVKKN
Experiment: Activation of Nrf2 in human IMR-32-ARE-Luc cells by Bright-Glo luciferase assay

Row | EC50 | Structure (SMILES)
1 | > 20 µM | CC(C)CN[C@H]1CS(=O)(=O)C[C@@H]1C(=O)Nc1ccc(Cl)c(Cl)c1
2 | > 20 µM | O=C(O)CCCCCN[C@H]1CS(=O)(=O)C[C@@H]1S(=O)(=O)c1ccc(Cl)c(Cl)c1
3 | > 20 µM | O=C(O)CCCN[C@H]1CS(=O)(=O)C[C@@H]1S(=O)(=O)c1ccc(Cl)c(Cl)c1
